Laboratory results published in US20230107642A1 (Erasca, Inc., priority 2020, published 2023).

biological target: T1, K-Ras G12C (Homo sapiens, UniProt P01116, G12C); test: CAF assay (% CAF; method in Example 7, not in this part); assay type: binding; conditions: 10 uM compound, 1 h incubation
T1 construct: This protein contained 188 amino acids in total, including an N-terminal 6-Histidine tag; made in house; host or cells: E. coli BL21

Q: With `C=CC(=O)N1C[C@H](C)N(c2nc(=O)n3c4c(c(-c5ccc(F)cc5)c(C(F)(F)F)cc24)SC[C@@H]3COC)C[C@H]1C` [Example 497, (S)-7-((2S,5R)-4-acryloyl-2,5-dimethylpiperazin-1-yl)-10-(4-fluorophenyl)-3-(methoxymethyl)-9-(trifluoromethyl)-2H-[1,4]thiazino[2,3,4-ij]quinazolin-5(3H)-one] as the compound, how does the “% CAF @ 10 uM, 1h” value read?
A: 85.1%

Q: For `C=CC(=O)N1C[C@H](C)N(c2nc(=O)n3c4c(c(-c5ccc(F)cc5F)c(C(F)(F)F)cc24)SC[C@@H]3COCCOC)C[C@H]1C` [Example 498, (3S)-7-((2S,5R)-4-acryloyl-2,5-dimethylpiperazin-1-yl)-10-(2,4-difluorophenyl)-3-((2-methoxyethoxy)methyl)-9-(trifluoromethyl)-2H-[1,4]thiazino[2,3,4-ij]quinazolin-5(3H)-one], which “% CAF @ 10 uM, 1h” value is on record?
A: 81.2%

Q: With `C=CC(=O)N1C[C@H](C)N(c2nc(=O)n3c4c(c(-c5cc(Cl)c(F)cc5F)c(Cl)cc24)SC[C@@H]3CN2CCN(C3CC3)CC2)C[C@H]1C` [Example 499, (3S)-7-((2S,5R)-4-acryloyl-2,5-dimethylpiperazin-1-yl)-9-chloro-10-(5-chloro-2,4-difluorophenyl)-3-((4-cyclopropylpiperazin-1-yl)methyl)-2H-[1,4]thiazino[2,3,4-ij]quinazolin-5(3H)-one] as the compound, how does the “% CAF @ 10 uM, 1h” value read?
A: 28%

Q: `C=CC(=O)N1C[C@H](C)N(c2nc(=O)n3c4c(c(-c5cc(Cl)c(F)cc5F)c(Cl)cc24)SC[C@@H]3CN2C[C@@H]3C[C@H]2CO3)C[C@H]1C` [Example 500, (3S)-3-((1S,4S)-2-oxa-5-azabicyclo[2.2.1]heptan-5-ylmethyl)-7-((2S,5R)-4-acryloyl-2,5-dimethylpiperazin-1-yl)-9-chloro-10-(5-chloro-2,4-difluorophenyl)-2H-[1,4]thiazino[2,3,4-ij]quinazolin-5(3H)-one] was tested. Which “% CAF @ 10 uM, 1h” value did it give?
A: 50.6%

Q: Which “% CAF @ 10 uM, 1h” value does the source give for `C=CC(=O)N1C[C@H](C)N(c2nc(=O)n3c4c(c(-c5ccc(F)cc5F)c(Cl)cc24)SC[C@@H]3COCCOC)C[C@H]1C` [Example 501, (3S)-7-((2S,5R)-4-acryloyl-2,5-dimethylpiperazin-1-yl)-9-chloro-10-(2,4-difluorophenyl)-3-((2-methoxyethoxy)methyl)-2H-[1,4]thiazino[2,3,4-ij]quinazolin-5(3H)-one] here?
A: 66.8%

Q: How did the “% CAF @ 10 uM, 1h” value turn out when `C=CC(=O)N1C[C@H](C)N(c2nc(=O)n3c4c(c(-c5cc(Cl)c(F)cc5F)c(Cl)cc24)SC[C@@H]3COCCOC)C[C@H]1C` [Example 502, (3S)-7-((2S,5R)-4-acryloyl-2,5-dimethylpiperazin-1-yl)-9-chloro-10-(5-chloro-2,4-difluorophenyl)-3-((2-methoxyethoxy)methyl)-2H-[1,4]thiazino[2,3,4-ij]quinazolin-5(3H)-one] was run?
A: 65.1%

Q: How did the “% CAF @ 10 uM, 1h” value turn out when `C=CC(=O)N1[C@H](C)CN(c2nc(=O)n3c4c(c(-c5ccc(F)cc5F)c(C(F)(F)F)cc24)SC[C@@H](OC)C3)C[C@@H]1C` [Example 503, (3S)-8-((3S,5R)-4-acryloyl-3,5-dimethylpiperazin-1-yl)-11-(2,4-difluorophenyl)-3-methoxy-10-(trifluoromethyl)-3,4-dihydro-2H,6H-[1,4]thiazepino[2,3,4-ij]quinazolin-6-one] was run?
A: 96%

Q: `C=CC(=O)N1CCN(c2nc(=O)n3c4c(c(-c5ccc(F)cc5F)c(Cl)cc24)SC[C@@H](OC)C3)CC1` [Example 504, (3S)-8-(4-acryloylpiperazin-1-yl)-10-chloro-11-(2,4-difluorophenyl)-3-methoxy-3,4-dihydro-2H,6H-[1,4]thiazepino[2,3,4-ij]quinazolin-6-one] was tested. Which “% CAF @ 10 uM, 1h” value did it give?
A: 96%

Q: With `C=CC(=O)N1[C@H](C)CN(c2nc(=O)n3c4c(c(-c5ccc(F)cc5F)c(Cl)cc24)SC[C@@H](OC)C3)C[C@@H]1C` [Example 505, (3S)-8-((3S,5R)-4-acryloyl-3,5-dimethylpiperazin-1-yl)-10-chloro-11-(2,4-difluorophenyl)-3-methoxy-3,4-dihydro-2H,6H-[1,4]thiazepino[2,3,4-ij]quinazolin-6-one] as the compound, how does the “% CAF @ 10 uM, 1h” value read?
A: 95%

Q: For `C=CC(=O)N1[C@H](C)CN(c2nc(=O)n3c4c(c(-c5cc(F)c(F)cc5F)c(Cl)cc24)SC[C@@H]3COC)C[C@@H]1C` [Example 506, (3S)-7-((3S,5R)-4-acryloyl-3,5-dimethylpiperazin-1-yl)-9-chloro-3-(methoxymethyl)-10-(2,4,5-trif1uorophenyl)-2,3-dihydro-5H-[1,4]thiazino[2,3,4-ij]quinazolin-5-one], which “% CAF @ 10 uM, 1h” value is on record?
A: 17.5%

Q: With `C=CC(=O)N1CCN(c2nc(=O)n3c4c(c(-c5ccc(F)cc5F)c(C(F)(F)F)cc24)S[C@H](COC)C3)[C@@H](C)C1` [Example 507, (2S)-7-((S)-4-acryloyl-2-methylpiperazin-1-yl)-10-(2,4-difluorophenyl)-2-(methoxymethyl)-9-(trifluoromethyl)-2,3-dihydro-5H-[1,4]thiazino[2,3,4-ij]quinazolin-5-one] as the compound, how does the “% CAF @ 10 uM, 1h” value read?
A: 71%

Q: `C=CC(=O)N1C[C@H](C)N(c2nc(=O)n3c4c(c(-c5ccc(F)cc5)c(C(F)(F)F)cc24)SC[C@@H]3COCCOC)C[C@H]1C` [Example 512, (S)-7-((2S,5R)-4-acryloyl-2,5-dimethylpiperazin-1-yl)-10-(4-fluorophenyl)-3-((2-methoxyethoxy)methyl)-9-(trifluoromethyl)-2H-[1,4]thiazino[2,3,4-ij]quinazolin-5(3H)-one] was tested. Which “% CAF @ 10 uM, 1h” value did it give?
A: 66.1%

Q: How did the “% CAF @ 10 uM, 1h” value turn out when `C=CC(=O)N1[C@H](C)CN(c2nc(=O)n3c4c(c(-c5ccc(F)cc5F)c(C(F)(F)F)cc24)SC[C@@H]3COC)C[C@@H]1C` [Example 513, (3S)-7-((3S,5R)-4-acryloyl-3,5-dimethylpiperazin-1-yl)-10-(2,4-difluorophenyl)-3-(methoxymethyl)-9-(trifluoromethyl)-2H-[1,4]thiazino[2,3,4-ij]quinazolin-5(3H)-one] was run?
A: 96.2%

Q: `C=CC(=O)N1CCN(c2nc(=O)n3c4c(c(-c5ccc(F)cc5F)c(C(F)(F)F)cc24)SC[C@@H]3COC)CC1` [Example 514, (3S)-7-(4-acryloylpiperazin-1-yl)-10-(2,4-difluorophenyl)-3-(methoxymethyl)-9-(trifluoromethyl)-2H-[1,4]thiazino[2,3,4-ij]quinazolin-5(3H)-one] was tested. Which “% CAF @ 10 uM, 1h” value did it give?
A: 96.1%

Q: Which “% CAF @ 10 uM, 1h” value does the source give for `C=CC(=O)N1C[C@H](C)N(c2nc(=O)n3c4c(c(-c5ccc(F)cc5)c(Cl)cc24)SC[C@@H]3CN2CCN(CC(F)F)CC2)C[C@H]1C` [Example 515, (S)-7-((2S,5R)-4-acryloyl-2,5-dimethylpiperazin-1-yl)-9-chloro-3-((4-(2,2-difluoroethyl)piperazin-1-yl)methyl)-10-(4-fluorophenyl)-2H-[1,4]thiazino[2,3,4-ij]quinazolin-5(3H)-one] here?
A: 55.1%

Q: For `C=CC(=O)N1CCN(c2nc(=O)n3c4c(c(-c5ccc(F)cc5)c(C(F)(F)F)cc24)SC[C@@H]3COCOC)[C@@H](C)C1` [Example 516, (S)-7-((S)-4-acryloyl-2-methylpiperazin-1-yl)-10-(4-fluorophenyl)-3-((methoxymethoxy)methyl)-9-(trifluoromethyl)-2H-[1,4]thiazino[2,3,4-ij]quinazolin-5(3H)-one], which “% CAF @ 10 uM, 1h” value is on record?
A: 74.4%

Q: `C=CC(=O)N1C[C@H](C)N(c2nc(=O)n3c4c(c(-c5ccc(F)cc5)c(Cl)cc24)SC[C@@H]3CN2CCN(C3CC3)CC2)C[C@H]1C` [Example 517, (S)-7-((2S,5R)-4-acryloyl-2,5-dimethylpiperazin-1-yl)-9-chloro-3-((4-cyclopropylpiperazin-1-yl)methyl)-10-(4-fluorophenyl)-2H-[1,4]thiazino[2,3,4-ij]quinazolin-5(3H)-one] was tested. Which “% CAF @ 10 uM, 1h” value did it give?
A: 59.5%

Q: Which “% CAF @ 10 uM, 1h” value does the source give for `C=CC(=O)N1C[C@H](C)N(c2nc(=O)n3c4c(c(-c5ccc(F)cc5F)c(Cl)cc24)SC[C@@H]3CN2C[C@@H]3C[C@H]2CO3)C[C@H]1C` [Example 519, (3S)-3-((1S,4S)-2-oxa-5-azabicyclo[2.2.1]heptan-5-ylmethyl)-7-((2S,5R)-4-acryloyl-2,5-dimethylpiperazin-1-yl)-9-chloro-10-(2,4-difluorophenyl)-2H-[1,4]thiazino[2,3,4-ij]quinazolin-5(3H)-one] here?
A: 61.3%

Q: How did the “% CAF @ 10 uM, 1h” value turn out when `C=CC(=O)N1CCN(c2nc(=O)n3c4c(c(-c5cc(F)c(F)cc5F)c(Cl)cc24)SC[C@@H]3CN2CCN(C3CC3)CC2)[C@@H](C)C1` [Example 520, (3S)-7-((S)-4-acryloyl-2-methylpiperazin-1-yl)-9-chloro-3-((4-cyclopropylpiperazin-1-yl)methyl)-10-(2,4,5-trifluorophenyl)-2H-[1,4]thiazino[2,3,4-ij]quinazolin-5(3H)-one] was run?
A: 51.1%

Q: `C=CC(=O)N1C[C@H](C)N(c2nc(=O)n3c4c(c(-c5cc(Cl)c(F)cc5F)c(C(F)(F)F)cc24)SC[C@@H]3CN2CCN(CC(F)F)CC2)C[C@H]1C` [Example 521, (3S)-7-((2S,5R)-4-acryloyl-2,5-dimethylpiperazin-1-yl)-10-(5-chloro-2,4-difluorophenyl)-3-((4-(2,2-difluoroethyl)piperazin-1-yl)methyl)-9-(trifluoromethyl)-2H-[1,4]thiazino[2,3,4-ij]quinazolin-5(3H)-one] was tested. Which “% CAF @ 10 uM, 1h” value did it give?
A: 40.6%

Q: For `C=CC(=O)N1CCN(c2nc(=O)n3c4c(c(-c5cc(F)c(F)cc5F)c(C(F)(F)F)cc24)SC[C@@H]3COCOC)[C@@H](C)C1` [Example 522, (3S)-7-((S)-4-acryloyl-2-methylpiperazin-1-yl)-3-((methoxymethoxy)methyl)-9-(trifluoromethyl)-10-(2,4,5-trifluorophenyl)-2H-[1,4]thiazino[2,3,4-ij]quinazolin-5(3H)-one], which “% CAF @ 10 uM, 1h” value is on record?
A: 72.4%

Q: For `C=CC(=O)N1C2CN(c3nc(=O)n4c5c(c(-c6ccc(F)cc6F)c(C(F)(F)F)cc35)SC[C@@H]4COC)CC1CC(F)(F)C2` [Example 523, (3S)-7-(9-acryloyl-7,7-difluoro-3,9-diazabicyclo[3.3.1]nonan-3-yl)-10-(2,4-difluorophenyl)-3-(methoxymethyl)-9-(trifluoromethyl)-2H-[1,4]thiazino[2,3,4-ij]quinazolin-5(3H)-one], which “% CAF @ 10 uM, 1h” value is on record?
A: 68.9%
